Results on two compounds are retold here after US20240285497A1, “METHOD FOR EVALUATING AN ABILITY OF A TEST SAMPLE TO TRIGGER A FOREIGN BODY REACTION IN THE SKIN, A METHOD FOR SCREENING A SUBSTANCE HAVING AN ABILITY TO INHIBIT A FOREIGN BODY REACTION IN THE SKIN, AND AN AGENT FOR INHIBITING A FOREIGN BODY REACTION IN THE SKIN” (priority 2021, published 2024).

Data set [1] has as its system XRE-NLuc::HaCaT cells. Nature of the data set: in vitro. Particulars: read-out: LC50; XRE-NLuc::HaCaT cells, median lethal concentration. As to the method:
After the above-described incubation for 24 hours, the number of cells in each well was counted by a colorimetric method based on the degradation of tetrazolium salt (WST-1) by mitochondrial dehydrogenase in viable cells. Specifically, 3 μL of Premix WST-1 (Product Name “Premix WST-1 Cell Proliferation Assay System”; Takara Bio Inc., Shiga, Japan; Catalogue No.: MK400) was added to each well of 96 well plates, and then the cells were cultured for 1 hour at 37° C., 5% CO2. Thereafter, 93 μL of cell culture supernatant was removed from each well to measure the absorbance of the supernatant in each well. The removed supernatants were transferred to transparent 96 well plates, and then the absorbance at 450 nm (A450) and, as a reference wavelength, the absorbance at 670 nm (A670) were measured using iMark microplate reader (Bio-Rad; Catalogue No.: 168-1130JA). A value (A450-A670) was obtained by subtracting the absorbance at 670 nm (A670) from the absorbance at 450 nm (A450). The relative viable cell count (%) was expressed as a relative value with the value (A450-A670) obtained for the negative control as 100%.
The ability of each test sample to trigger a foreign body reaction was evaluated using XRE-NLuc::HaCaT cells in the same manner as in Experiment 1-2, except that I3C (Indole-3-carbinol, CAS RN: 700-06-1), ITE (2-(1′H-indole-3′-carbonyl)-thiazole-4-carboxylic acid methyl ester, CAS RN: 448906-42-1), and Indirubin (CAS RN: 479-41-4) were used instead of FICZ as test samples and the amount of each test sample added to the DMEM medium was appropriately changed.

Data set [2] relates to human liver cancer-derived cell line HepG2 cells. The following applies: cited from earlier work.
Data set [3] relates to matrix metalloprotease 2 (MMP2) mRNA. The experiment in a line: MMP2 mRNA expression in HaCaT cells contacted with test substance, quantitative PCR. It is filed as cell-based, human. The following applies: 1 μM, 10 μM and 100 μM, HaCaT cells, 24 hours. As to the method: In this experiment, the effect of Fraglide-1 on the expression of MMP9 in the level of mRNA was examined first. Specifically, HaCaT cells were treated with Fraglide-1 in the same manner as described in Experiment 3-1 except that HaCaT cells were incubated for 24 hours in the medium containing 0 μM, 1 μM, 10 μM, and 100 μM of Fraglide-1 instead of being incubated for 24 hours in the medium containing both FICZ and Fraglide-1. The total RNA was then extracted, cDNA was prepared, and the quantitative PCR was performed using the obtained cDNA. Herein, the procedure of the quantitative PCR was the same as described in Experiment 3-1 except that the primers shown in below Table 4 were used. In this experiment, the expression of MMP2 mRNA was also quantified in addition to MMP9 mRNA. MMP2 is known as a MMP which is not transcriptionally regulated by a xenobiotic responsive element (XRE). […]
Next, experiments were performed to inhibit MMP9 and MMP2 in HaCaT cells using retinoic acid (CAS RN: 302-79-4) and nicotinamide (CAS RN: 98-92-0), which are known to be substances having anti-wrinkle effect. […] Then, the total RNA was extracted, cDNA was prepared, and the quantitative PCR was carried out using the obtained cDNA. […]

The subject of data set [4] is artemin mRNA. Nature of the data set: Inhibition of FICZ-induced artemin mRNA expression in HaCaT cells, quantitative PCR. It is filed as cell-based, human. As to the method: First, HaCaT cells (CLI; Catalogue No.: 300493) were suspended in a DMEM medium at the density of 1×10^5 cell/mL, and 100 μL of the thus obtained suspension was added to each well of white 96-well plates (Thermo Fisher Scientific, MA, U.S.A.; Catalogue No.: 136102) so that the number of the cells in each well was 10,000 cells/well. In accordance with the conventional method, the cells were incubated for 24 hours at 37° C. and 5% CO2. Thereafter, the DMEM medium was removed, and 100 μL of a new DMEM medium containing both FICZ at predetermined concentration (500 nM or 5,000 nM) and Fraglide-1 at a predetermined concentration (0 nM or 250 nM). After incubation for 24 hours at 37° C. and 5% CO2, the total RNA was extracted, cDNA was prepared, and quantitative PCR was carrier out using the obtained cDNA in the same manner as described in Experiment 2. In FIG. 7, the results obtained for each sample were shown as a relative value, with the expression level of artemin mRNA in HaCaT cells incubated 24 hours in DMEM medium containing neither FICZ nor Fraglide-1 set to 1.
As described above, Fraglide-1 inhibited production of artemin induced by FICZ. Then, the following experiment was conducted in order to quantitatively evaluated the effect of inhibiting artemin production exerted by Fraglide-1. Briefly, HaCaT cells were treated with FICZ and Fraglide-1 in the same manner as in Experiment 3-1 except that the concentration of FICZ was set to 5,000 nM and the concentration of Fraglide-1 was set to 0 μM, 0.01 μM, 0.1 μM, 1 μM, 10 μM, and 100 µM, and then the total RNA was extracted, cDNA was prepared, and quantitative PCR was carried out. Based on the obtained result, the inhibition rate (Inhibition (%)) of the artemin mRNA expression triggered by FICZ when a given concentration of Fraglide-1 was added to the cell culture medium together with 5,000 nM of FICZ was calculated in accordance with the following formula. […]

Marks after values point to notes of the source that are not given here. A value given as a limit tells only on which side of the number the result lay.

Take 6-formylindolo[3,2-b] carbazole [FICZ]: in data set [1], the CC50 is more than 5 µM. Besides, the “Literature Value Maximum Effective concentration Max. Induction” value in data set [2] was 1** μM.

For the compound `O=C1C=C(c2ccccc2)C(O)O1` (stereo not drawn) [Fraglide-1, 5-hydroxy-4-phenyl-2(5H)butenolide], in data set [3], the “MMP2 mRNA expression” value is “no decrease in the mRNA expression was observed”. Further, the “Inhibition (%) of artemin mRNA expression triggered by FICZ” value in data set [4] (100 nM (0.1 μM) Fraglide-1, 5,000 nM FICZ) is reported as “approximately 50%”. Further, the “expression level of artemin mRNA compared to cells without FICZ” value in data set [4] (250 μM Fraglide-1 plus 500 nM or 5,000 nM FICZ, 24 hours) is reported as “no increase in the expression level of artemin mRNA was observed”. Moreover, the “inhibition of FICZ-induced expression of artemin, dependence on concentration” value in data set [4] (Fraglide-1 0.01-100 μM, 5,000 nM FICZ) is “in the concentration dependent manner”.
